# Data from patent publication US10709769B2, “Use of endostatin peptides for the treatment of fibrosis” (University of Pittsburgh—Of the Commonwealth System of …, priority 2009, dated 2020).
# What was measured:
# [1] = test system: MMP-2; assay: MMP-2 gelatin zymography in primary human lung fibroblasts; type: cell-based
# Description: FIG. 14A-14B. A. E4 reduces fibrosis in vitro by inducing MMP-2 activity in primary human lung fibroblasts, thus resulting in increased degradation of collagen and other matrix proteins. Digital image of a gelatin zymography gel showing increased MMP-2 activity when primary human lung fibroblasts are treated with E-4 following TGFβ (lane 4). Lane 1: Vehicle (DMSO); Lane 2: E-4; Lane 3: TGF 3; Lane 4: TGF 3 followed by E4. B. Digital image showing that both total and active MMP-2 levels are increased in cells treated with TGFbeta and E-4.
# [2] = test system: mouse skin; assay: Bleomycin-induced dermal fibrosis in vivo in mouse skin; conditions: single administration 10 μg/ml on first day, daily bleomycin s.c., skin harvested after 10 days
# Description: FIGS. 8A-8B. The effect of endostatin E-4 on bleomycin induced dermal fibrosis in vivo. A: Mice were injected subcutaneously with 1×PBS as vehicle (V) or Bleomycin (Bleo; 20 μg/mouse) daily. E-4 (10 μg/ml) was mixed with bleomycin on the first day, and daily bleomycin administration was continued without subsequent injections of E4 (Bleo+E-4). Skin was harvested after 10 days. Sections were stained with H&E. Magnification, 100×. B: Graphical summary of dermal thickness data shown in A. Data represent three independent experiments. Mann-Whitney U test was used for statistical analysis. * P<0.001, ** P<0.00001.
# E4, a peptide representing the carboxy terminus of human endostatin, can attenuate fibrosis triggered by multiple fibrogenic factors. The anti-fibrotic effects of E4 can be detected whether administered concomitantly with or following the fibrogenic trigger. […]
# For these studies, fibrosis was assessed by measurement of dermal thickness on H&E skin sections (skin), assessment of collagen levels by Masson Trichrome staining (skin and lung), and measurement of collagen levels by Sircol assay (lung). […] Results were assessed using the unpaired t test and the 3-way ANOVA (for the ID1 data).
substance,measurement,setting,value
"H-^133SYCETWRTEAPSATGQASSLLGGRLLGQSAASCHHAYIVLCIENSFMT^180-CONH2 (H-SYCETWRTEAPSATGQASSLLGGRLLGQSAASCHHAYIVLCIENSFMT-NH2; cysteine pairing not given here; UniProt P39060 1704-1751, looked up, fragment) [E4, amino acids 133-180 of human endostatin; differs from E3 by the presence of a carboxy-terminal amide]",MMP-2 activity,"[1]; E-4 following TGFβ, gelatin zymography",increased
same,total and active MMP-2 levels,[1]; cells treated with TGFbeta and E-4,increased
same,bleomycin induced dermal fibrosis (dermal thickness),[2],significant attenuation
